Results on eleven molecules are retold here after patent US9974761B2, “Medications for deposition on biological surfaces” (The Procter & Gamble Company, priority 2014, dated 2018).

For assay [1], the target named is T1, human TRPA1 (Homo sapiens, UniProt O75762, K186N/R3C/R58T).
T1 construct: expressed in transfected cells
The assay is described as follows: TRPA1 Protocol-FLIPR Assay (intracellular Ca2+). The class given is cell-based. As for the experimental part:
To determine whether TRPA1 is activated, the intracellular calcium ion (Ca^2+) level from transfected cells with the TRPA1 receptor sequence (SEQ ID NO: 2) was measured. HEK-293 cells stably transfected with human TRPA1 were grown in 15 ml growth medium (high glucose DMEM (Dulbecco's Modification of Eagle's Medium) supplemented with 10% FBS (fetal bovine serum), 100 μg/ml penicillin/streptomycin, 100 μg/ml G418) in a 75cm^2 flask for 3 days at 37° C. in a mammalian cell culture incubator set at 5% CO2. Cells were detached with addition of 10 ml of PBS (phosphate buffered saline) by hand shaking gently and transferred to a 50 ml tube and centrifuged at 850 rpm for 3 minutes to remove PBS. After centrifugation, a pellet of cells was formed in the bottom of the tube separating them from the supernatant solution. The supernatant was discarded and the cell pellet suspended in 1 ml of fresh growth medium to which 5 μl (12.5 μg) of Fluo-4 AM (Molecular Probes, Inc.) calcium indicator was added and incubated for 30 minutes with gentle shaking. At the end of the 30 minutes, 45 ml of assay buffer (1× HBSS (Hank's Balanced Salt Solution), 20 mM HEPES (4-(2-Hydroxyethyl)-1-piperazineethanesulfonic acid)) was added to wash the cells and the resulting combination was then centrifuged at 850 rpm for 3 minutes to remove excess buffer and Fluo-4 AM calcium indicator.
The pelleted cells were re-suspended in 10 ml assay buffer and 90 μll aliquots (˜50,000 cells) per well delivered to a 96-well assay was placed into a fluorometric imaging plate reader (FLIPR TETRA from Molecular Devices) and basal fluorescence recorded (excitation wave length 488 nm and emission wave length 510 nm). Then 20 μl of the test compound being tested was added and fluorescence recorded (TABLES 2 and 3).
To determine if a compound was an agonist the direct effect of a test compound was determined. If any increase in fluorescence over background was noted, then the compound was considered an agonist. The agonist activity was expressed relative to that observed with a benchmark agonist such as 50 μm allyl isothiocyanate for TRPAL

Assay [2] can be described thus: Sensation reported by panelists. In kind it is in vivo. Conditions: perceived sensation, in words.
For assay [3], the target named is T2, human TRPV1 (Homo sapiens, UniProt Q8NER1, M315I/T336M).
T2 construct: expressed in transfected cells
T2 sequence (Q8NER1 whole entry M315I/T336M): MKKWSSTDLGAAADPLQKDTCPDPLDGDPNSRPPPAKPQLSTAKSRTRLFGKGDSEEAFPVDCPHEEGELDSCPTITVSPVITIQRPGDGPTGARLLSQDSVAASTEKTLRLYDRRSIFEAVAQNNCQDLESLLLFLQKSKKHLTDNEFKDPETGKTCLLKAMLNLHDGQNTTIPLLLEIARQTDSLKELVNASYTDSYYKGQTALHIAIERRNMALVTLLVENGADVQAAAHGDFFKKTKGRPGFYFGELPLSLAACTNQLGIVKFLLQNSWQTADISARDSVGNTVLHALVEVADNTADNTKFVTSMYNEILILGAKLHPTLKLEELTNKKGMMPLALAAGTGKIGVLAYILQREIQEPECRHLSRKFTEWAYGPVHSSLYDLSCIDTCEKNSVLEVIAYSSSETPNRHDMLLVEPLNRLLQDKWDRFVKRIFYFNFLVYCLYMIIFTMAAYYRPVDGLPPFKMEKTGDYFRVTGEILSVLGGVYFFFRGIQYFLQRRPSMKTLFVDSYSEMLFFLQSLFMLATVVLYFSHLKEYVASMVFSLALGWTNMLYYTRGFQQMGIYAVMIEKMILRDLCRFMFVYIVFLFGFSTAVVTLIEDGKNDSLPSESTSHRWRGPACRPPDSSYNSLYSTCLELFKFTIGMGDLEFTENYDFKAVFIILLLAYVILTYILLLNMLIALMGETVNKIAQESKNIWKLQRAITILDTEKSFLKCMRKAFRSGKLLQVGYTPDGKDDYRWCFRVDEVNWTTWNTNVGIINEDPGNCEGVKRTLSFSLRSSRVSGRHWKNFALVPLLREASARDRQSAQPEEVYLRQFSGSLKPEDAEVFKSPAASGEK
The assay is described as follows: TRPV1 Protocol-FLIPR Assay (intracellular Ca2+). The class given is cell-based. As for the experimental part:
To determine whether TRPV1 was activated, the intracellular calcium ion (Ca^+2) levels from cells transfected with the TRPV1 receptor sequence (SEQ ID NO: 1) were measured. […] Cells were detached with addition of 10 ml of PBS (phosphate buffered saline) by gentle hand shaking. Cells were transferred to a 50 ml tube and centrifuged at 850 rpm for 3 minutes to remove PBS. After centrifugation, a pellet of cells formed in the bottom of the tube separating them from the supernatant solution. The supernatant was discarded and the cell pellet suspended in 1 ml of fresh growth medium to which 5 μl (12.5 μg) of Fluo-4 AM (Molecular Probes, Inc., Eugene, Oreg.) calcium indicator was added and incubated for 30 minutes with gentle shaking. […] The pelleted cells were re-suspended in 10 ml assay buffer and 90 μl aliquots (˜50,000 cells) per well delivered to a 96-well assay plate was placed into a fluorometric imaging plate reader (FLIPR TETRA from Molecular Devices) and basal fluorescence recorded (excitation wave length 488 nm and emission wave length 510 nm). Then 20 μl of a test compound-being tested as a TRPV1 receptor agonist was added and fluorescence recorded. The observed value with compound pretreated cells was compared with buffer control; the difference between the two indicating a measure of effect of the test compound on the agonist (TABLES 2 and 3). If any increase in fluorescence over background was noted, then the compound was considered an agonist.

Assay [4] deals with T3, human TRPM8 (UniProt Q8R4D5).
T3 construct: Receptor Activity TRPM8; Receptor Activity TRPM8; other: test compound at 0.001%; relative to WS5 control (30 microMolar); HEK 293 cells; other: test compound at 0.004%; other: test compound at 5.2E−5%; relative to WS5 control
The assay is described as follows: TRPM8 Protocol-FLIPR Assay (intracellular Ca2+). In kind it is cell-based. On the procedure:
(§1) To determine whether TRPM8 is activated, the intracellular calcium ion (Ca^2+) level was measured from transfected cells with the TRPM8 receptor sequence (SEQ ID NO: 3). HEK-293 (human embryonic kidney) cells stably transfected with human TRPM8 were grown in 15 ml growth medium (high glucose DMEM (Dulbecco's Modification of Eagle's Medium) supplemented with 10% FBS (fetal bovine serum), 100 ug/ml penicillin/streptomycin, 5 μg/ml blasticindin, and 100 μg/ml zeocin) in a 75 cm^2 flask for 3 days at 37° C. in a mammalian cell culture incubator set at 5% CO2 Cells were detached with addition of 2 ml of trypsin-EDTA buffer (GIBCO® 25200, Invitrogen, Grand Island, N.Y.) for about 2-3 min. Trypsin was inactivated by addition of 8 ml growth medium. Cells were transferred to a 50 ml tube and centrifuged at 850 rpm for 3 minutes to remove medium. After centrifugation, a pellet of cells was formed in the bottom of the tube separating them from the supernatant solution. The supernatant was discarded and the cell pellet was suspended in 1 ml of fresh growth medium to which 5 μl (12.5 μg) of Fluo-4 AM (Molecular Probes, Inc., Eugene, Oreg.) calcium indicator was added and incubated for 30 min with gentle shaking. Fluo-4 AM is a fluorescent dye used for quantifying cellular Ca^2+ concentrations in the 100 nM to 1 microM range. At the end of 30 minutes, 45 ml of assay buffer (1× HBSS (Hank's Balanced Salt Solution), 20 mM HEPES (4-(2-Hydroxyethyl)-1-piperazineethanesulfonic acid)) was added to wash cells and the resulting mixture was then centrifuged at 850 rpm for 3 minutes to remove excess buffer and Fluo-4 AM calcium indicator.
(§2) The pelleted cells were re-suspended in 10 ml assay buffer and 90 μl aliquots (˜50,000 cells) per well delivered to a 96-well assay plate containing 10 μl of test compounds (1 mM in assay buffer, […]) or buffer control and incubated at room temperature for 30 minutes. After 30 minutes, a plate was placed into a fluorometric imaging plate reader (FLIPR384 from Molecular Devices, Sunnyvale, Calif.) and basal fluorescence recorded (excitation wave length 488 nm and emission wave length 510 nm). Then 20 μl of […] of TRPM8 agonist WS5 coolant in the assay buffer was added and fluorescence recorded. For determining the direct effect of test compounds on TRPM8, fluorescence was measured immediately after addition of each compound (TABLES 2 and 3). Additional discussion of the FLIPR method can be found in Smart et al., Characterization using FLIPR of human vanilloid VR1 receptor pharmacology, European Journal of Pharmacology 417, 51-58 (2001) and Liu et al., Development and validation of a platelet calcium flux assay using a fluorescent imaging plate reader, Analytical Biochemistry 357, 216-224 (2006).
(§3) TRPM8 activation was determined by measuring intracellular calcium ion (Ca^2+) level from transfected cells with the TRPM8 receptor gene, as described in EXAMPLE 1, the results of which are shown in TABLES 4 and 5.

Assay [5] relates to human TRPM8. Nature of the assay: TRPM8 Protocol-FLIPR Assay (intracellular Ca2+). The class given is cell-based. The note with it: dose 30 uM. On the procedure: as §1, §2, §3
The conditions of assay [6]: concentration where the cooling effect could be clearly recognized; Emberger and Hopp 1987; cited from earlier work.
Where [7] appears, read: test compound at 0.02%, relative to Allyl Isothiocyanate control (50 microMolar), HEK 293 cells.
Setting [8] is: test compound at 0.02%, relative to Capsaicin control (350 nanoMolar), HEK 293 cells.
Setting [9] is: test compound at 5.2E−5%, relative to Allyl Isothiocyanate control (50 microMolar), HEK 293 cells.
Where [10] appears, read: test compound at 5.2E−5%, relative to Capsaicin control (350 nanoMolar), HEK 293 cells.

T1 sequence (O75762 whole entry R3C/R58T/K186N): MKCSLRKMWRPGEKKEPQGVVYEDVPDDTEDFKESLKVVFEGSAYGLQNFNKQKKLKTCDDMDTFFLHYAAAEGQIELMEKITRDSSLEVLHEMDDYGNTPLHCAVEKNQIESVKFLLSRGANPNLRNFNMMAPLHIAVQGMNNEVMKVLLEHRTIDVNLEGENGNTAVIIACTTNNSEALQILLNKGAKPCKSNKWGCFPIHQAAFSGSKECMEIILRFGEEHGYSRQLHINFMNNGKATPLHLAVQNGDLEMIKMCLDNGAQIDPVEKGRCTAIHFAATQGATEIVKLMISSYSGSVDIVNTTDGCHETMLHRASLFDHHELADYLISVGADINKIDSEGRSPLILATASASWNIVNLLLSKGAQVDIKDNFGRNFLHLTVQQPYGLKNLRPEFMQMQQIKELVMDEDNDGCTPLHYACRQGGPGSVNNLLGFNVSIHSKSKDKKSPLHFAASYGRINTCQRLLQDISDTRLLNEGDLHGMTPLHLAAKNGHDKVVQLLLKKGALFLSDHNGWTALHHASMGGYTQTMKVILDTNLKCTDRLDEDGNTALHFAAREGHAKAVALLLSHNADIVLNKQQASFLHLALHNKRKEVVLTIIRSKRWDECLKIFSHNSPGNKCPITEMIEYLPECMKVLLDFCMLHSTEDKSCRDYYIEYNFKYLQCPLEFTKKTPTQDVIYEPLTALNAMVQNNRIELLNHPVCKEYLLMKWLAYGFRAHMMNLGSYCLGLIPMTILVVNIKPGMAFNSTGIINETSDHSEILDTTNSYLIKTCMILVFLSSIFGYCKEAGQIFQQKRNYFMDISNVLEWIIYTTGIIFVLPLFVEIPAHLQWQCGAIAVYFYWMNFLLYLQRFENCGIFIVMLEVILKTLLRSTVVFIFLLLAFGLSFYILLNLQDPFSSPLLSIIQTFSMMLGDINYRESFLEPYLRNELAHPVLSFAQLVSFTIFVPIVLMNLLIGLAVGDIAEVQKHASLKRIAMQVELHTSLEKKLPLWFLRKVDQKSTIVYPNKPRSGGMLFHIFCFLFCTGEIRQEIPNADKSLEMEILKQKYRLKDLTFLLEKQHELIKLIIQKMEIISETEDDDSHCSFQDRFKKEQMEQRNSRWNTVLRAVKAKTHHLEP

Regarding `CC(C)[C@@H]1CC[C@@H](C)C[C@H]1C(=O)Nc1ccc2ccccc2c1OCCN` [Compound 777, Cyclohexane-carboxamide, N-[1-(2-aminoethoxy)-2-naphthalenyl]-5-methyl-2-(1-methylethyl)-, (1R,2S,5R)-*], the “Receptor Activity TRPA1” value in assay [1] (setting [7]) is given as 173.88%. Besides, the “sensation (cooling, warming, burning)” value in assay [2] was “burning”; in assay [2] (listed as test compound 777) it was “burning sensation”. In addition, the “Receptor Activity TRPV1” value in assay [3] (setting [8]) is recorded as 60.5%.
As to `C=CCN=C=S` [Allyl Isothiocyanate, reference compound], the “Receptor Activity TRPA1” value in assay [1] (control agonist at 50 microMolar (reference = 100%)) is on record as 100%.
Turning to `COc1cc(CNC(=O)CCCC/C=C/C(C)C)ccc1O` [Capsaicin, reference compound], in assay [3] (control agonist at 350 nanoMolar (reference = 100%)), the “Receptor Activity TRPV1” value amounted to 100%.
For the molecule `CC(C)[C@@H]1CC[C@@H](C)C[C@H]1C(=O)NCC(OCCN)c1ccccc1` (stereo partly drawn) [Compound 30, Cyclohexane-carboxamide, N-[2-(2-aminoethoxy)-2-phenylethyl]-5-methyl-2-(1-methylethyl)-, (1R,2S,5R)-*], the “Receptor Activity TRPA1” value in assay [1] (setting [9]) was determined as 38.18%. Besides, the “sensation (cooling, warming, burning)” value in assay [2] is reported as “lack of sensation, cooling or warming”. The “Receptor Activity TRPV1” value in assay [3] (setting [10]) came out at 16.24%. For the same molecule, the “Receptor Activity TRPM8” value in assay [4] (test compound at 5.2E−5%, relative to WS5 control (30 microMolar), HEK 293 cells) is 109.70%.
As for `CCOC(=O)CNC(=O)C1CC(C)CCC1C(C)C` (stereo not shown) [WS5, N-ethoxycarbonylmethyl-ρ-menthan-3-carboxamide, reference compound], the “Receptor Activity TRPM8” value in assay [4] (control agonist at 30 microMolar (reference = 100%)) amounted to 100%. Also, the “TRPM8 Time Course Activity 50 sec % of WS5” value in assay [4] (dose 30 uM, 50 sec) was found to be 100.0%; in assay [5] (50 sec) it was 100.0%. In addition, the “TRPM8 Time Course Activity 50 sec” value was determined as 10059.7 in assay [4] (dose 30 uM, fluorescence at 50 sec) and 10059.7 in assay [5] (fluorescence at 50 sec). Moreover, in assay [5] (3 min), the “TRPM8 Time Course Activity 3 min % of WS5” value came out at 100.0%. The “TRPM8 Time Course Activity 5 min % of WS5” value in assay [5] (5 min) amounted to 100.0%. The “TRPM8 Time Course Activity 10 min % of WS5” value in assay [5] (10 min) came out at 100.0%. Besides, in assay [5] (fluorescence at 3 min), the “TRPM8 Time Course Activity 3 min” value is 9449.3. For the same molecule, the “TRPM8 Time Course Activity 5 min” value in assay [5] (fluorescence at 5 min) turned out to be 9468.0. The “TRPM8 Time Course Activity 10 min” value in assay [5] (fluorescence at 10 min) amounted to 9576.0.
`CC(C)[C@@H]1CC[C@@H](C)C[C@@H]1O` [Compound 1-neomenthol, 1-neomenthol]: in assay [6], the cooling threshold entry is given as “about 3,000 ppb”.
Consider `CC(C)[C@@H]1CC[C@@H](C)C[C@H]1O` [L-menthol], for which the cooling threshold entry in assay [6] was “about 800 ppb”.
Regarding `CC(C)[C@@H]1CC[C@@H](C)C[C@H]1C(=O)Nc1ccc(CC#N)cc1` [Compound 180, Cyclohexane-carboxamide, N-[4-(cyanomethyl)phenyl]-5-methyl-2-(1-methylethyl)-, (1R,2S,5R)-, reference compound], in assay [1] (test compound at 0.001%, relative to Allyl Isothiocyanate control (50 microMolar), HEK 293 cells), the “Receptor Activity TRPA1” value was 68.02%. Moreover, in assay [3] (test compound at 0.001%, relative to Capsaicin control (350 nanoMolar), HEK 293 cells), the “Receptor Activity TRPV1” value amounted to 0.01%. The “Receptor Activity TRPM8” value in assay [4] (test compound at 0.001%, relative to WS5 control (30 microMolar), HEK 293 cells) was determined as 108.80%; in assay [4] (test compound at 0.001%, relative to WS5 control (30 microMolar), HEK 293 cells, listed as N-(4-cyanomethylphenyl)-p-menthanecarboxamide), 109%.
With `CSc1ccc(NC(=O)[C@@H]2C[C@H](C)CC[C@H]2C(C)C)c(NCCN)c1` [Compound 773, Cyclohexane-carboxamide N-[2-[(2-aminoethyl)amino]-4-(methylthio)phenyl]-5-methyl-2-(1-methylethyl)-(1R,2S,5R)-*], in assay [1] (setting [7]), the “Receptor Activity TRPA1” value is reported as 198.79%. Moreover, the “sensation (cooling, warming, burning)” value in assay [2] was “warming”. For the same molecule, the “Receptor Activity TRPV1” value in assay [3] (setting [8]) is 92.07%.
In the case of `CC(C)[C@@H]1CC[C@@H](C)C[C@H]1C(=O)NCC(NC(=O)[C@@H](C)N)c1ccccc1` (stereo partly drawn) [Compound 28, Cyclohexane-carboxamide, N-[2-[[(2R)-2-amino-1-oxopropyl]amino]-2-phenylethyl]-5-methyl-2-(1-methylethyl)-, (1R,2S,5R)-*], the “Receptor Activity TRPA1” value in assay [1] (setting [9]) amounted to 242.50%. The “sensation (cooling, warming, burning)” value in assay [2] is “cooling sensations”. Moreover, the “Receptor Activity TRPV1” value in assay [3] (setting [10]) turned out to be 104.50%. In assay [4] (at a single concentration, TRPM8 activity vs WS5), the “mass efficiency relative to N-(4-cyanomethylphenyl)-p-menthanecarboxamide” value turned out to be 100 ×. Also, the “Receptor Activity TRPM8” value in assay [4] (test compound at 5.2E−6%, relative to WS5 control (30 microMolar), HEK 293 cells) is given as 130.42%; in assay [4] (test compound at 5.2E−6%, relative to WS5 control (30 microMolar), HEK 293 cells, listed as compound 28), 130%.
As for `CC(C)[C@@H]1CC[C@@H](C)C[C@@H]1O` [d-neomenthol], in assay [6], the cooling threshold result is “about 25,000 ppb”.
